The values that follow come from ChEMBL document CHEMBL3751691, “A Journey around the Medicinal Chemistry of Hepatitis C Virus Inhibitors Targeting NS4B: From Target to Preclinical Drug Candidates” (J Med Chem, 2016).

The experiment deals with Hepatitis C virus. The experiment is described as follows: Antiviral activity against HCV genotype 1b after 3 days by luciferase reporter assay. It is filed as functional, organism-based, Hepacivirus hominis. Conditions: 72 h. On the technique in general: Reporter assays use an easily measured gene product as a stand-in for the process of interest.

Molecules are shown by their SMILES.

What is called EC50 is the concentration needed to bring the measured effect to its halfway point. Low readings indicate a more potent agent, high ones a less potent agent. As for `Cc1cnc(C(=O)N[C@H]2CCCCC/C=C\[C@@H]3C[C@@]3(C(=O)NS(=O)(=O)C3CC3)NC(=O)[C@@H]3C[C@@H](Oc4nc5ccccc5c5ccccc45)CN3C2=O)cn1`, the 50% effective concentration (EC50) amounted to 0.21 nM.
